{"source": "ChEMBL document CHEMBL5344406", "about": "“1,2,3-Triazole-containing hybrids with potential antibacterial activity against ESKAPE pathogens” (2022)", "type_in_all_cases": "functional", "key": {"Escherichia coli [1]": {"tested_on": "Escherichia coli", "experiment": "Antibacterial activity against Escherichia coli ATCC 25922 assessed as bacterial growth inhibition incubated for 16 to 20 hrs by CLSI based broth microdilution method", "settings": "time 16-20 hrs"}, "Staphylococcus aureus [2]": {"tested_on": "Staphylococcus aureus", "experiment": "Antibacterial activity against Staphylococcus aureus ATCC 25923 assessed as bacterial growth inhibition incubated for 18 to 20 hrs by broth microdilution method", "settings": "time 18-20 hrs"}, "Pseudomonas aeruginosa [3]": {"tested_on": "Pseudomonas aeruginosa", "experiment": "Antibacterial activity against Pseudomonas aeruginosa ATCC 27853 assessed as bacterial growth inhibition incubated for 16 to 20 hrs by CLSI based broth microdilution method", "settings": "time 16-20 hrs"}, "Staphylococcus aureus [4]": {"tested_on": "Staphylococcus aureus", "experiment": "Antibacterial activity against Staphylococcus aureus ATCC 29213 assessed as bacterial growth inhibition incubated for 16 to 20 hrs by CLSI based broth microdilution method", "settings": "time 16-20 hrs"}, "Klebsiella pneumoniae [5]": {"tested_on": "Klebsiella pneumoniae", "experiment": "Antibacterial activity against multi-drug Klebsiella pneumoniae assessed as bacterial growth inhibition incubated for 18 hrs by absorbance based assay"}, "Escherichia coli [6]": {"tested_on": "Escherichia coli", "experiment": "Antibacterial activity against Escherichia coli assessed as bacterial growth inhibition incubated for 18 hrs by absorbance based assay"}, "Acinetobacter baumannii": {"tested_on": "Acinetobacter baumannii", "experiment": "Antibacterial activity against Acinetobacter baumannii assessed as bacterial growth inhibition incubated for 18 hrs by absorbance based assay"}, "Staphylococcus aureus [7]": {"tested_on": "Staphylococcus aureus", "experiment": "Antibacterial activity against methicillin-resistant Staphylococcus aureus assessed as bacterial growth inhibition incubated for 18 hrs by absorbance based assay"}, "Escherichia coli [8]": {"tested_on": "Escherichia coli", "experiment": "Antibacterial activity against Escherichia coli JM109 assessed as bacterial growth inhibition incubated for 18 to 20 hrs by broth microdilution method", "settings": "time 18-20 hrs"}, "Bacillus subtilis [9]": {"tested_on": "Bacillus subtilis", "experiment": "Antibacterial activity against Bacillus subtilis assessed as bacterial growth inhibition"}, "[10]": {"tested_on": "Staphylococcus epidermidis", "experiment": "Antibacterial activity against Staphylococcus epidermidis assessed as bacterial growth inhibition by broth dilution method"}, "Escherichia coli [11]": {"tested_on": "Escherichia coli", "experiment": "Antibacterial activity against Escherichia coli assessed as bacterial growth inhibition"}, "Staphylococcus aureus [12]": {"tested_on": "Staphylococcus aureus", "experiment": "Antibacterial activity against Staphylococcus aureus assessed as bacterial growth inhibition"}, "Staphylococcus aureus [13]": {"tested_on": "Staphylococcus aureus", "experiment": "Antibacterial activity against Staphylococcus aureus assessed as bacterial growth inhibition by broth dilution method"}, "Staphylococcus aureus [14]": {"tested_on": "Staphylococcus aureus", "experiment": "Antibacterial activity against Staphylococcus aureus 209p ATCC 6538P assessed as bacterial growth inhibition incubated for 1 to 2 days by serial dilution method", "settings": "time 1-2 day"}, "Bacillus subtilis [15]": {"tested_on": "Bacillus subtilis", "experiment": "Antibacterial activity against Bacillus subtilis assessed as bacterial growth inhibition incubated for 18 to 20 hrs by broth microdilution method", "settings": "time 18-20 hrs"}, "Escherichia coli [16]": {"tested_on": "Escherichia coli", "experiment": "Antibacterial activity against Escherichia coli assessed as bacterial growth inhibition by agar well diffusion method"}, "Bacillus subtilis [17]": {"tested_on": "Bacillus subtilis", "experiment": "Antibacterial activity against Bacillus subtilis assessed as bacterial growth inhibition by agar well diffusion method"}, "Pseudomonas aeruginosa [18]": {"tested_on": "Pseudomonas aeruginosa", "experiment": "Antibacterial activity against Pseudomonas aeruginosa assessed as bacterial growth inhibition by agar well diffusion method"}, "Staphylococcus aureus [19]": {"tested_on": "Staphylococcus aureus", "experiment": "Antibacterial activity against Staphylococcus aureus assessed as bacterial growth inhibition by agar well diffusion method"}, "Pseudomonas aeruginosa [20]": {"tested_on": "Pseudomonas aeruginosa", "experiment": "Potency index, ratio of Ciprofloxacin MIC to test compound MIC for antibacterial activity against Pseudomonas aeruginosa assessed as bacterial growth inhibition by serial dilution method"}, "Escherichia coli [21]": {"tested_on": "Escherichia coli", "experiment": "Potency index, ratio of Ciprofloxacin MIC to test compound MIC for antibacterial activity against Escherichia coli MTCC 1687 assessed as bacterial growth inhibition by serial dilution method"}, "Pseudomonas aeruginosa [22]": {"tested_on": "Pseudomonas aeruginosa", "experiment": "Antibacterial activity against Pseudomonas aeruginosa assessed as bacterial growth inhibition by serial dilution method"}, "Staphylococcus aureus [23]": {"tested_on": "Staphylococcus aureus", "experiment": "Potency index, ratio of Ciprofloxacin MIC to test compound MIC for antibacterial activity against Staphylococcus aureus MTCC 737 assessed as bacterial growth inhibition by serial dilution method"}, "Staphylococcus aureus [24]": {"tested_on": "Staphylococcus aureus", "experiment": "Antibacterial activity against Staphylococcus aureus MTCC 737 assessed as bacterial growth inhibition by serial dilution method"}, "Escherichia coli [25]": {"tested_on": "Escherichia coli", "experiment": "Antibacterial activity against Escherichia coli MTCC 1687 assessed as bacterial growth inhibition by serial dilution method"}, "Bacillus subtilis [26]": {"tested_on": "Bacillus subtilis", "experiment": "Antibacterial activity against Bacillus subtilis MTCC 441 assessed as bacterial growth inhibition incubated for 24 hrs by serial dilution method"}, "Staphylococcus aureus [27]": {"tested_on": "Staphylococcus aureus", "experiment": "Antibacterial activity against Staphylococcus aureus MTCC 7443 assessed as bacterial growth inhibition incubated for 24 hrs by serial dilution method"}, "Staphylococcus aureus [28]": {"tested_on": "Staphylococcus aureus", "experiment": "Antibacterial activity against Staphylococcus aureus Viotko assessed as bacterial growth inhibition incubated for 1 to 2 days by serial dilution method", "settings": "time 1-2 day"}, "Staphylococcus aureus [29]": {"tested_on": "Staphylococcus aureus", "experiment": "Antibacterial activity against Staphylococcus aureus C-18 clinical isolate assessed as bacterial growth inhibition incubated for 1 to 2 days by serial dilution method", "settings": "time 1-2 day"}, "Klebsiella pneumoniae [30]": {"tested_on": "Klebsiella pneumoniae", "experiment": "Antibacterial activity against Klebsiella pneumoniae NCDC 138 assessed as bacterial growth inhibition incubated for 24 hrs by serial dilution method"}, "Escherichia coli [31]": {"tested_on": "Escherichia coli", "experiment": "Antibacterial activity against Escherichia coli MTCC 443 assessed as bacterial growth inhibition incubated for 24 hrs by serial dilution method"}}, "data": [{"compound": "CC(=O)OC[C@@H]1O[C@H](n2cc(CNC(=O)c3ccc(-c4ccc(Br)cc4)o3)nn2)[C@@H](OC(C)=O)[C@H](OC(C)=O)[C@H]1OC(C)=O", "values": [{"measurement": "MIC", "setting": "Escherichia coli [1]", "result": "> 250", "unit": "µg/mL"}, {"measurement": "MIC", "setting": "Staphylococcus aureus [2]", "result": "> 250", "unit": "µg/mL"}, {"measurement": "MIC", "setting": "Pseudomonas aeruginosa [3]", "result": "> 250", "unit": "µg/mL"}, {"measurement": "MIC", "setting": "Staphylococcus aureus [4]", "result": "> 250", "unit": "µg/mL"}]}, {"compound": "Cc1ccc(S(=O)(=O)OCCn2cc(COc3cccc4cccnc34)nn2)cc1", "values": [{"measurement": "MIC", "setting": "Klebsiella pneumoniae [5]", "result": 75.4, "unit": "µg/mL"}, {"measurement": "MIC", "setting": "Escherichia coli [6]", "result": 75.4, "unit": "µg/mL"}, {"measurement": "MIC", "setting": "Acinetobacter baumannii", "result": 75.4, "unit": "µg/mL"}, {"measurement": "MIC", "setting": "Staphylococcus aureus [7]", "result": 75.4, "unit": "µg/mL"}]}, {"compound": "CN[C@@H]1[C@H](O[C@H]2[C@H](O[C@H]3[C@H](O)[C@@H](O)[C@H](N=C(N)N)[C@@H](O)[C@@H]3N=C(N)N)O[C@@H](C)[C@]2(O)C=O)O[C@@H](CO)[C@H](O)[C@H]1O", "note": "[STREPTOMYCIN]", "values": [{"measurement": "MIC", "setting": "Escherichia coli [8]", "result": 1, "unit": "µg/mL"}, {"measurement": "MIC", "setting": "Bacillus subtilis [9]", "result": 6.25, "unit": "µg/mL"}, {"measurement": "MIC", "setting": "[10]", "result": 4.68, "unit": "µg/mL"}, {"measurement": "MIC", "setting": "Escherichia coli [11]", "result": 6.25, "unit": "µg/mL"}, {"measurement": "MIC", "setting": "Staphylococcus aureus [12]", "result": 6.25, "unit": "µg/mL"}, {"measurement": "MIC", "setting": "Staphylococcus aureus [13]", "result": 9.36, "unit": "µg/mL"}, {"measurement": "MIC", "setting": "Staphylococcus aureus [14]", "result": 1.89, "unit": "µg/mL"}, {"measurement": "MIC", "setting": "Bacillus subtilis [15]", "result": 2, "unit": "µg/mL"}]}, {"compound": "COc1ccc(-c2cc(-c3cccs3)nc(OCc3cn(CC(=O)Nc4ccc(C(C)=O)cc4)nn3)c2O)cc1", "values": [{"measurement": "MIC", "setting": "Escherichia coli [16]", "result": 0.5, "unit": "µg/mL"}, {"measurement": "MIC", "setting": "Bacillus subtilis [17]", "result": 0.5, "unit": "µg/mL"}, {"measurement": "MIC", "setting": "Pseudomonas aeruginosa [18]", "result": 0.5, "unit": "µg/mL"}, {"measurement": "MIC", "setting": "Staphylococcus aureus [19]", "result": 0.5, "unit": "µg/mL"}]}, {"compound": "COc1cccc2cc(C(=O)c3cn(-c4ccc(Cl)cc4)nn3)c(=O)oc12", "values": [{"measurement": "Ratio", "setting": "Pseudomonas aeruginosa [20]", "result": 2}, {"measurement": "Ratio", "setting": "Escherichia coli [21]", "result": 2}, {"measurement": "MIC", "setting": "Pseudomonas aeruginosa [22]", "result": 6.25, "unit": "µg/mL"}, {"measurement": "Ratio", "setting": "Staphylococcus aureus [23]", "result": 2}, {"measurement": "MIC", "setting": "Staphylococcus aureus [24]", "result": 6.25, "unit": "µg/mL"}, {"measurement": "MIC", "setting": "Escherichia coli [25]", "result": 6.25, "unit": "µg/mL"}]}, {"compound": "CC(C)(NS(=O)(=O)c1ccc(Br)cc1)c1cn(-c2ccc(Br)cc2)nn1", "values": [{"measurement": "MIC", "setting": "Bacillus subtilis [26]", "result": 12.5, "unit": "µg/mL"}, {"measurement": "MIC", "setting": "Staphylococcus aureus [27]", "result": 12.5, "unit": "µg/mL"}]}, {"compound": "O=C(O)c1ccc(-n2cc(CNC(=O)c3cc4ccc(=O)oc4cc3O)nn2)cc1", "values": [{"measurement": "MIC", "setting": "Staphylococcus aureus [28]", "result": 3.75, "unit": "µg/mL"}, {"measurement": "MIC", "setting": "Staphylococcus aureus [29]", "result": 0.65, "unit": "µg/mL"}, {"measurement": "MIC", "setting": "Staphylococcus aureus [14]", "result": 0.16, "unit": "µg/mL"}]}, {"compound": "CC(C)(NS(=O)(=O)c1ccccc1)c1cn(-c2ccc(Br)cc2)nn1", "values": [{"measurement": "MIC", "setting": "Klebsiella pneumoniae [30]", "result": 12.5, "unit": "µg/mL"}, {"measurement": "MIC", "setting": "Escherichia coli [31]", "result": 25, "unit": "µg/mL"}]}]}
